Laboratory results: patent US9936701B2, “Herbicidal compounds” (Syngenta Participations AG, priority 2013, dated 2018)

Tests used:
[1] = test system: a variety of test species; assay: Post-emergence herbicidal activity (glasshouse, sprayed after 8 days cultivation, evaluated after 13 days); format: in vivo; parameters: key: 5=total damage to plant; 0=no damage to plant; settings: rate 1000 g/Ha, scale 0-5
Procedure: (§1) Seeds of a variety of test species were sown in standard soil in pots. After 8 days cultivation (post-emergence) under controlled conditions in a glasshouse (at 24/16° C., day/night; 14 hours light; 65% humidity), the plants were sprayed with an aqueous spray solution derived from the formulation of the technical active ingredient in acetone/water (50:50) solution containing 0.5% Tween 20 (polyoxyethelyene sorbitan monolaurate, CAS RN 9005-64-5). The test plants were then grown in a glasshouse under controlled conditions (at 24/16° C., day/night; 14 hours light; 65% humidity) and watered twice daily. After 13 days, the test was evaluated (5=total damage to plant; 0=no damage to plant).

[2] = test system: a variety of test species; assay: Pre-emergence herbicidal activity (glasshouse, sprayed one day after sowing, evaluated after 13 days); format: in vivo; parameters: key: 5=total damage to plant; 0=no damage to plant; settings: application pre-emergence, rate 1000 g/Ha, scale 0-5
Procedure: as §1, with “After” for “After 8 days”, “for one day (pre-emergence)” for “(post-emergence)”

SMILES	ABUTH (Abutilon theophrasti) damage score, application post-emergence [1]	ALOMY (Alopecurus myosuroides) damage score, application post-emergence [1]	AMARE (Amaranthus retroflexus) damage score, application post-emergence [1]	ECHCG (Echinochloa crus-galli) damage score, application post-emergence [1]	SETFA (Setaria faberi) damage score, application post-emergence [1]	ZEAMX (Zea mays) damage score, application post-emergence [1]	Pre-emergence herbicidal damage score, ABUTH [2]	Pre-emergence herbicidal damage score, ALOMY [2]	Pre-emergence herbicidal damage score, AMARE [2]	Pre-emergence herbicidal damage score, ECHCG [2]	Pre-emergence herbicidal damage score, SETFA [2]	Pre-emergence herbicidal damage score, ZEAMX [2]
CC1=C(Cl)C(=O)N(c2cc(C(C)(C)C)on2)C1OC(=O)C(C)(C)C (stereo not drawn) [A77]	1	2	3	3	2	1	1	1	4	1	2	1
CCC1=C(I)C(=O)N(c2cc(C(C)(C)C)on2)C1O (stereo not drawn) [A13]	5	5	5	5	5	2	3	3	5	3	3	1
CC1=C(Cl)C(=O)N(c2cc(C(C)(C)C)on2)C1OC(=O)C(C)C (stereo not drawn) [A76]	5	5	5	5	5	4	5	4	5	4	4	3
CC(C)(C)c1cc(N2C(=O)C(Cl)=C(N)C2O)no1 (stereo not drawn) [C6, 3-amino-1-(5-tert-butylisoxazol-3-yl)-4-chloro-2-hydroxy-2H-pyrrol-5-one]	3	5	5	5	5	5	5	4	5	5	4	4
CC(C)(C)c1cc(N2C(=O)C(Cl)=C(NC3CCC3)C2O)no1 (stereo not drawn) [C9]	0	0	2	0	0	0	0	0	3	0	0	0
CC1=C(Cl)C(=O)N(c2cc(C(C)(C)C)on2)C1OC(=O)c1ccno1 (stereo not drawn) [A92]	5	5	5	5	5	1	5	4	5	5	4	3
COC(=O)OC1C(C)=C(Cl)C(=O)N1c1cc(C(C)(C)C)on1 (stereo not drawn) [A81]	5	5	5	5	5	4	5	4	5	5	5	3
COCC(C)(C)c1cc(N2C(=O)C(C)=C(OC)C2O)no1 (stereo not drawn) [G3]	5	4	3	5	5	5	5	3	5	5	5	4
CCCC1=C(Cl)C(=O)N(c2noc(C)c2C#N)C1O (stereo not drawn) [A70]	2	3	5	5	5	1	0	1	5	4	3	1
CCOC(=O)OC1C(C)=C(Cl)C(=O)N1c1noc(C(C)(C)C)c1C#N (stereo not drawn) [A96]	5	5	5	5	5	5	5	4	5	5	5	3
